The text below walks through data of patent US20070105960A1, “Treatment of learning disabilities and motor skills disorder with norepinephrine reuptake inhibitors” (ELI LILLY AND COMPANY, priority 2003, published 2007).

Each structure is given as a SMILES string. Entries after “also recorded” stand apart in the source; their conditions may differ.

Assay [1] relates to rats. Kind of assay: 8-arm radial maze delayed non-match to sample task. The class given is in vivo, rat. The conditions noted are these: FIG. 1. On the procedure: (§1) The effects of atomoxetine on learning and memory in rats are evaluated in two different animal models. In an 8-arm radial maze delayed non-match to sample (DNMTS) task, well-trained rats recall where they received rewards during an information phase in order to obtain the remaining rewards during a retention phase conducted after a delay of several hours. Performance in this task is influenced by the administration of putative amnesics and cognitive enhancers (Staubli U, Rogers G, Lynch G (1994) Facilitation of glutamate receptors enhances memory. Proc Natl Acad Sci USA 91: 777-781; Pilcher J J, Sessions G R, McBride S A (1997) Scopolamine impairs spatial working memory in the radial maze: an analysis by error type and arm choice. Pharmacol Biochem Behav 58: 449-459; Pussinen R, Sirvio J (1999) Effects of D-cycloserine, a positive modulator of N-methyl-D-aspartate receptors, and ST 587, a putative alpha-1 adrenergic agonist, individually and in combination, on the non-delayed and delayed foraging behaviour of rats assessed in the radial arm maze. J Psychopharinacol 13:171-179; Wolff M. C., Leander, J. David (2003) A comparison of the effects of antipsychotics on a delayed radial maze task in the rat. Psychopharmacolology 168:410-416). […]

The subject of assay [2] is rats. Kind of assay: Object recognition test. The class given is in vivo, rat. The note with it: three hour delay, 60 minutes pre-treatment, FIG. 2. On the procedure: as §1, with “maze.” for “maze. J Psychopharinacol 13:171-179; Wolff M. C., Leander, J. David (2003) A comparison of the effects of antipsychotics on a delayed radial maze task in the rat. Psychopharmacolology 168:410-416).”
During the testing phase of the experiment, rats are administered appropriate vehicle or drug (N=9/dose) and placed back in their home cage for the pre-treatment period (60 minutes). […] The time spent sniffing (nose <2.5 cm from the object), gnawing, or touching the objects with the front paws is recorded. […]

Turning to `CNCC[C@@H](Oc1ccccc1C)c1ccccc1` [atomoxetine, (R)-(−)-N-methyl-3-(2-methyl-phenoxy)-3-phenylpropylamine], in the assay with rats [1], the “errors in the 8 arm radial maze retention paradigm” value is reported as “reduction of errors”. In the assay on rats [1] (oral, 7 hour delay), the “learning and memory performance in the 8 arm radial maze” value is “improves learning and memory performance”. For the same molecule, the object recognition result in the assay with rats [2] is on record as “improves object recognition; also recorded: improvement of object recognition”.
